Data on 4 molecules can be found in patent EP0366632A1, “Alternative energy substrates” (priority 1988, dated 1990).

Data set [1] has as its system Staphylococcus epidermidis 61540-51. The experiment in a line: Microorganism count in 2% solutions of sodium salts (Example 19). As to conditions: 2% solution, pH about 7, +37°C. The data set is classed as cell-based. The procedure: (§1) Staphylococcus epidermidis 61540-51 and Escherichia coli ATTC 8739 were each added to a respective solution in a concentration of about 3000-10 000/ml. These samples were then incubated at +37°C for 20 hours. A microorganism count was carried out after 2 and 20 hours, in a manner described in microbiological literature. Parallel with the aforesaid tests, a control was run in pure phosphate buffer and in Tryptone soya broth (TSB) with additions of Staphylococcus epidermidis 61540-51 and Escherichia coli ATTC 8739 respectively, to ascertain the viability of the microorganisms to survive, i.e. the ability of the microorganisms to grow under the ideal conditions provided. After 2 hours, the number of organisms/ml of type Staphylococcus epidermidis in the phosphate solution was 4300 and after 20 hours 1. Growth could be established in TSB after 20 hours. […] This was also the case with the sodium salt of 2 percent 5-methyl-3-oxo-hexanoic acid ethyl ester. After 2 hours, the microorganism count of Escherichia coli in the phosphate solution was 3400, and after 20 hours 7400. Growth was established in TSB after 20 hours. In the solution containing 2% sodium salt of 4-methyl-3-oxo-pentanoic acid ethyl ester, the organism count was 2000 after 2 hours and 0 after 20 hours. With respect to the sodium salt of 5-methyl-3-oxo-hexanoic acid ethyl ester, the organism count was 44 after 2 hours and 0 after 20 hours.

The subject of data set [2] is Escherichia coli ATTC 8739. Described as above. The data set is classed as cell-based. As to conditions: 2% solution, pH about 7, +37°C. The method, then: as §1
Data set [3] is described as follows: Unspecified toxicity, intravenous injection in mice. As to conditions: Example 22: 37 mg per mouse i.v. The data set is classed as in vivo. The procedure:
Unspecified toxicity was tested on four mice by first weighing the animals, and then injecting the animals intravenously with 0.5 ml of an emulsion of 4-methyl-3-oxo-pentanoic acid having a concentration of 50 mg/ml for 10 minutes. Each mouse received a dosage of 25 mg. The emulsion was prepared aseptically, by emulsifying sterile-filtered ester with a sterilized dispersion of egg-yolk phospholipids. […] The increase in weight of the animals was normal during the observation period (weight increase: X=4.5 g, S.D. 0.5).
The unspecific toxicity was tested on 5 mice by first weighing the animals, and then injecting intravenously 0.5 ml of an emulsion of 4-methy-3-oxo-pentanoic acid ethyl ester having a concentration of 5 mg/ml for 15 seconds. The emulsion was aseptically prepared, by emulsifying sterile-filtered ester with a sterilized dispersion of egg-yolk phospholipids. […] Each mouse received a total dosage of 2.5 mg.
Unspecified toxicity was tested on four mice by first weighing the animals, and then injecting intravenously 0.2 ml of an emulsion of 4-methyl-3-oxo-pentanoic acid ethyl ester having a concentration of 33 mg/ml for 30 seconds. Each mouse received a dosage of 6.7 mg. The emulsion was prepared aseptically, by emulsifying sterile-filtered ester with a sterilized dispersion of egg-yolk phospholipids. […]

Data set [4] concerns E. coli. The experiment in a line: Microorganism count in emulsions diluted to 2% (Example 20, Table 2). The data set is classed as cell-based. As to conditions: emulsion diluted to 2% with PBS pH=7.00, +37°C.
[5] abbreviates: after 2 hours, inoculum about 3000-10 000/ml.

Marks after values point to notes of the source that are not given here.

Take `CCOC(=O)CC(=O)CC(C)C.[Na]` [sodium salt of 5-methyl-3-oxo-hexanoic acid ethyl ester]: the number of organisms entry in data set [1] (setting [5]) and in data set [1] (after 20 hours) was “No organisms were found” throughout. Further, the organism count in data set [2] (setting [5]) came out at 44; in data set [2] (after 20 hours), 0. Besides, the “time after completing the injection until return to normal” value in data set [3] amounted to 1 min. Moreover, the “weight development over the following 7 days” value in data set [3] is “normal weight development”.

In the case of `CCOC(=O)C(=O)C(C)C` [Ethyl-3-methyl-2-oxo-butyrate], the number of microorganisms in data set [4] (0 hr) is 0*; in data set [4] (2 hrs) it was 0; in data set [4] (20 hrs), 0.

For the molecule `CCOC(=O)C(C)=O` [Ethyl-pyruvate], the number of microorganisms was 0* in data set [4] (0 hr), 0 in data set [4] (2 hrs) and 0 in data set [4] (20 hrs).

Consider `CCOC(=O)CC(=O)C(C)C.[Na]` [sodium salt of 4-methyl-3-oxo-pentanoic acid ethyl ester], for which the number of organisms result in data set [1] (setting [5]) and in data set [1] (after 20 hours) was “No organisms were found” throughout. In addition, the results for the organism count in data set [2] (setting [5]) and in data set [2] (after 20 hours) were 2000 and 0, respectively.
